Where two headings read alike, the source gives them in different places.

The assay deals with T1, plasma kallikrein (PKa) (Homo sapiens, UniProt P03952).
T1 construct: purchased R & D 2497-SE
Nature of the assay: Inhibitory activity against plasma kallikrein in vitro (fluorescence intensity enzyme assay, Pro-Phe-Arg-AMC substrate). The assay is classed as biochemical. Particulars: Pro-Phe-Arg-AMC substrate. The protocol:
Test of the inhibitory activities of the compounds of the present invention against plasma kallikrein (PKa), KLK1 and FXIa in vitro.
The final concentrations of enzyme protein and Pro-Phe-Arg-AMC in the reaction mixture were 10 nM and 60 µM, respectively. The starting concentration of the positive reference substance Avoralstat was 100 nM, 3-fold dilution, 10 + 0 dose. 0.05 µL of compound in 100% DMSO was delivered to a 384-well plate by an acoustic liquid delivery technique (Echo665; nanoliter range). Compound duplex test. […] IC50 values and nonlinear regression curve fitting were obtained using GraphPad Prism software.

Where [1] appears, read: plasma kallikrein enzyme assay, read-out: PKa IC50.

T1 sequence (P03952 391-638 limits assumed): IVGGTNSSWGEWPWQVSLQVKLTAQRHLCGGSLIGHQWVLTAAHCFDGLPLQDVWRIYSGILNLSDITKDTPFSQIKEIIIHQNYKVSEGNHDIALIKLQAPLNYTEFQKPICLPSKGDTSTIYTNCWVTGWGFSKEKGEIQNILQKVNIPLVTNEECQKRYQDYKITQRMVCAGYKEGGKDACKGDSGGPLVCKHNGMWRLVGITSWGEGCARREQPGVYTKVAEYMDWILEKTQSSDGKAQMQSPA
T1 sequence (P03952 20-390 partner limits assumed): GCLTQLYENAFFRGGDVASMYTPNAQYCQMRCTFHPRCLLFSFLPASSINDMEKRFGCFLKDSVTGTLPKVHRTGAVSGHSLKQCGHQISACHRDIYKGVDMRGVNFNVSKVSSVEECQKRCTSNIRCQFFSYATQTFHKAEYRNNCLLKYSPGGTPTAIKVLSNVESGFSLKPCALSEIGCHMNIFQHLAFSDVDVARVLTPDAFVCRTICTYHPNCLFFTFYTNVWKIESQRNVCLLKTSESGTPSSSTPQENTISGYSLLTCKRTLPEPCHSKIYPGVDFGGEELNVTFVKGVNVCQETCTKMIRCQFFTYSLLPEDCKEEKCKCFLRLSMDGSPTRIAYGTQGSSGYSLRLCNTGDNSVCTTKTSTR

Regarding `COc1ccnc(CNC(=O)c2cn(Cc3ccc(Cn4ccccc4=O)cc3)nc2CN2CC3(COC3)C2)c1F` [Compound 238], the IC50 under setting [1] worked out at 9.15 nM.

As to `CCN(CC)CCOCc1nn(Cc2ccc(Cn3ccccc3=O)cc2)cc1C(=O)NCc1nccc(OC)c1F` [Compound 239], the IC50 under setting [1] was 6.95 nM.

For the compound `COc1ccc(F)c(CNC(=O)c2cn(Cc3ccc(Cn4ccccc4=O)cc3)nc2COC2CCC2)c1F` [Compound 240], the IC50 under setting [1] amounted to 12.6 nM.

Turning to `N=C(N)c1ccc(CNC(=O)c2cnn(Cc3ccc(CC4CC4)cc3)c2)nc1` [Compound 243], the IC50 under setting [1] stood at 14.3 nM.

As for `COc1ccc(F)c(CNC(=O)c2cn(Cc3ccc(Cn4ccccc4=O)cc3)nc2CN2C(=O)CCC2=O)c1F` [Compound 248], the IC50 under setting [1] turned out to be 2.85 nM.

For `COc1ccnc(CNC(=O)c2cn(Cc3ccc(Cn4ccccc4=O)cc3)nc2COC2COC2)c1F` [Compound 249], under setting [1], the IC50 was found to be 7.89 nM.

On to `COc1ccc(F)c(CNC(=O)c2cn(Cc3ccc(Cn4ccccc4=O)cc3)nc2C2(OC)CCC2)c1F` [Compound 258], for which the IC50 under setting [1] was 63 nM.

As to `CNc1ccnc(CNC(=O)c2cn(Cc3ccc(Cn4ccccc4=O)cc3)nc2C2COC2)c1F` [Compound 260, N-((3-fluoro-4-(methylamino)pyridin-2-yl)methyl)-3-(oxetan-3-yl)-1-(4-((2-oxopyridin-1(2H)-yl)methyl)benzyl)-1H-pyrazole-4-carboxamide], the IC50 under setting [1] was determined as 7.78 nM.

As for `CNc1ccnc(CNC(=O)c2cn(Cc3ccc(Cn4ccccc4=O)cc3)nc2N2CC(F)(F)C2)c1F` [Compound 265], the IC50 under setting [1] amounted to 6.91 nM.

As for `Nc1ccnc(CNC(=O)c2cn(Cc3ccc(Cn4ccccc4=O)cc3)nc2N2CC(F)(F)C2)c1F` [Compound 268], the IC50 under setting [1] was 68.6 nM.

For the compound `CC(C)CNc1ccnc(CNC(=O)c2cn(Cc3ccc(Cn4ccccc4=O)cc3)nc2C2COC2)c1F` [Compound 269], under setting [1], the IC50 is above 1000 nM.

Turning to `CNC(=N)c1ccc(CNC(=O)c2cnn(Cc3ccc(CC4CC4)cc3)c2)cc1` [Compound 271], the IC50 under setting [1] stood at 855 nM.

As for `O=C(NCc1nccc(C2CC2)c1F)c1cn(Cc2ccc(Cn3ccccc3=O)cc2)nc1N1CC(F)(F)C1` [Compound 272], under setting [1], the IC50 stood at 42 nM.

For `O=C(NCc1nccc(NC2CCC2)c1F)c1cn(Cc2ccc(Cn3ccccc3=O)cc2)nc1C1COC1` [Compound 273], the IC50 under setting [1] was above 1000 nM.

As to `N=C(N)c1ccc(CNC(=O)c2cn(Cc3ccc(CC4CC4)cc3)nc2C(F)(F)F)c(F)c1` [Compound 275], the IC50 under setting [1] amounted to 56 nM.

In the case of `O=C(NCc1nccc(NCC2CC2)c1F)c1cn(Cc2ccc(Cn3ccccc3=O)cc2)nc1C1COC1` [Compound 276], under setting [1], the IC50 was above 1000 nM.

`O=C(NCc1nccc(NCC2CC2)c1F)c1cn(Cc2ccc(Cn3ccccc3=O)cc2)nc1N1CC(F)(F)C1` [Compound 277]: the IC50 under setting [1] was above 1000 nM.

Turning to `O=C(NCc1nccc(NC2CCC2)c1F)c1cn(Cc2ccc(Cn3ccccc3=O)cc2)nc1N1CC(F)(F)C1` [Compound 278], under setting [1], the IC50 was above 1000 nM.

Take `CC(C)CNc1ccnc(CNC(=O)c2cn(Cc3ccc(Cn4ccccc4=O)cc3)nc2N2CC(F)(F)C2)c1F` [Compound 279]: the IC50 under setting [1] is above 1000 nM.

For the compound `Cc1cc(N)nc(C)c1CNC(=O)c1cnn(Cc2ccc(CC3CC3)cc2)c1` [Compound 280], the IC50 under setting [1] is 2.64 nM.

Turning to `COc1ccc(F)c(CNC(=O)c2cn(Cc3ccc(Cn4cc(F)ccc4=O)cc3)nc2N2CC(F)(F)C2)c1F` [Compound 281], the IC50 under setting [1] is 24.9 nM.

Take `COc1ccnc(COC(=O)c2cn(Cc3ccc(Cn4cc(F)ccc4=O)cc3)nc2NC2(C)COC2)c1F` [Compound 284]: the IC50 under setting [1] is 3.41 nM.

With `COc1ccc(F)c(CNC(=O)c2cn(Cc3ccc(Cn4cc(F)ccc4=O)cc3)nc2COCC2(C)COC2)c1F` [Compound 285], the IC50 under setting [1] stood at 10.5 nM.

`COc1ccnc(CNC(=O)c2cn(Cc3ccc(Cn4cc(F)ccc4=O)cc3)nc2COCC2(C)COC2)c1F` [Compound 286]: the IC50 under setting [1] came out at 10.8 nM.

`COc1ccnc(CNC(=O)c2cn(Cc3ccc(Cn4ccccc4=O)cc3)nc2N2CC3(COC3)C2)c1F` [Compound 288]: the IC50 under setting [1] was found to be 11.5 nM.

`COc1ccc(Cl)c(CNC(=O)c2cn(Cc3ccc(Cn4ccccc4=O)cc3)nc2N2CC(F)(F)C2)c1F` [Compound 290]: the IC50 under setting [1] came to 4.62 nM.

As to `COc1ccc(F)c(CNC(=O)c2cn(Cc3ccc(Cn4ccccc4=O)cc3)nc2N2CC(C)(OC)C2)c1F` [Compound 291], the IC50 under setting [1] turned out to be 5.9 nM.

Regarding `COc1ccnc(CNC(=O)c2cn(Cc3ccc(Cn4ccccc4=O)cc3)nc2COC2CCCOC2)c1F` (stereo not shown) [Compound 294], under setting [1], the IC50 is 10.6 nM.

Consider `COc1ccnc(CNC(=O)c2cn(Cc3ccc(Cn4ccccc4=O)cc3)nc2COC2CCOCC2)c1F` [Compound 295], for which the IC50 under setting [1] stood at 16.3 nM.

Regarding `COc1ccnc(CNC(=O)c2cn(Cc3ccc(Cn4ccccc4=O)cc3)nc2NC2(C)COC2)c1F` [Compound 297], under setting [1], the IC50 came to 2.83 nM.

In the case of `COc1ccc(F)c(CNC(=O)c2cn(Cc3ccc(Cn4cc(F)ccc4=O)cc3)nc2N[C@H]2CCOC2)c1F` [Compound 298], under setting [1], the IC50 worked out at 2.79 nM.

On to `COc1ccnc(CNC(=O)c2cn(Cc3ccc(Cn4ccccc4=O)cc3)nc2COCC(C)(C)OC)c1F` [Compound 299], for which the IC50 under setting [1] was found to be 11.2 nM.

On to `COc1ccc(F)c(CNC(=O)c2cn(Cc3ccc(Cn4ccccc4=O)cc3)nc2NC2(C)COC2)c1F` [Compound 300], for which the IC50 under setting [1] amounted to 1.94 nM.

Take `COc1ccnc(CNC(=O)c2cn(Cc3ccc(Cn4ccccc4=O)cc3)nc2-c2cnccn2)c1F` [Compound 301]: the IC50 under setting [1] came out at 24.9 nM.

As to `COc1ccnc(CNC(=O)c2cn(Cc3ccc(Cn4ccccc4=O)cc3)nc2-c2cncnc2)c1F` [Compound 304], the IC50 under setting [1] is 7.24 nM.

With `COc1ccnc(CNC(=O)c2cn(Cc3ccc(Cn4ccccc4=O)cc3)nc2CN2C(=O)CC(C)(C)CC2=O)c1F` [Compound 305], under setting [1], the IC50 turned out to be 12.4 nM.

As for `COCC1CN(c2nn(Cc3ccc(Cn4ccccc4=O)cc3)cc2C(=O)NCc2nccc(OC)c2F)C1` [Compound 306], the IC50 under setting [1] is 12.8 nM.

With `COc1ccnc(CNC(=O)c2cn(Cc3ccc(Cn4ccccc4=O)cc3)nc2N2CC(OC(C)C)C2)c1F` [Compound 307], the IC50 under setting [1] was 4.57 nM.

On to `COc1ccnc(CNC(=O)c2cn(Cc3ccc(Cn4ccccc4=O)cc3)nc2CN2C(=O)CCCC2=O)c1F` [Compound 308], for which the IC50 under setting [1] is 3.49 nM.

Take `COc1ccnc(CNC(=O)c2cn(Cc3ccc(Cn4ccccc4=O)cc3)nc2CN2C[C@H](C)O[C@@H](C)C2)c1F` [Compound 309]: the IC50 under setting [1] was 273 nM.

As for `CC(C)Cc1ccc(Cn2cc(C(=O)NCc3ccc(C(=N)N)cc3)cn2)cc1` [Compound 312], the IC50 under setting [1] worked out at 2 nM.

For the compound `CN(C)c1ccnc(CNC(=O)c2cn(Cc3ccc(Cn4ccccc4=O)cc3)nc2N2CC3(C2)OCC3(C)C)c1F` [Compound 313], the IC50 under setting [1] stood at 3.24 nM.

In the case of `Cc1cc(C(=N)N)nc(C)c1CNC(=O)c1cnn(Cc2ccc(CC3CC3)cc2)c1` [Compound 323], under setting [1], the IC50 was 65.6 nM.

On to `O=C(NCc1nccc2[nH]ccc12)c1cn(Cc2ccc(Cn3ccccc3=O)cc2)nc1C1COC1` [Compound 325], for which the IC50 under setting [1] came to 38.6 nM.

For the compound `N=C(N)c1cnc(CNC(=O)c2cnn(Cc3ccc(CC4CC4)cc3)c2)nc1` [Compound 329], under setting [1], the IC50 is 42.4 nM.

Regarding `N=C(N)c1cnc(CNC(=O)c2cnn(Cc3ccc(CC4CC4)cc3)c2)cn1` [Compound 330], the IC50 under setting [1] came out at 855 nM.

Consider `O=C(NCc1nccc(NC2COC2)c1F)c1cn(Cc2ccc(Cn3ccccc3=O)cc2)nc1C1COC1` [Compound 331], for which the IC50 under setting [1] is above 1000 nM.

Regarding `O=C(NCc1nccc(NC2COC2)c1F)c1cn(Cc2ccc(Cn3ccccc3=O)cc2)nc1N1CC(F)(F)C1` [Compound 332], the IC50 under setting [1] was 540 nM.

For the compound `O=C(NCc1nccc(N2CCCC2)c1F)c1cn(Cc2ccc(CC3CC3)cc2)nc1C1COC1` [Compound 333], the IC50 under setting [1] was above 1000 nM.

With `CN(C)c1ccnc(CNC(=O)c2cn(Cc3ccc(CC4CC4)cc3)nc2C2COC2)c1F` [Compound 334], the IC50 under setting [1] came out at 421 nM.

Consider `Cn1ccc2c(CNC(=O)c3cn(Cc4ccc(Cn5ccccc5=O)cc4)nc3C3COC3)nccc21` [Compound 336], for which the IC50 under setting [1] worked out at 13.9 nM.

Take `O=C(NCc1nccc(C2CC2)c1F)c1cn(Cc2ccc(Cn3ccccc3=O)cc2)nc1C1COC1` [Compound 339]: under setting [1], the IC50 came to 31.6 nM.

For `O=C(NCc1nccc(C2CC2)c1F)c1cn(Cc2ccc(Cn3ccccc3=O)cc2)nc1C1CC(F)(F)C1` [Compound 340], the IC50 under setting [1] stood at 48 nM.

Regarding `CN(C)c1ccnc(CNC(=O)c2cn(Cc3ccc(Cn4ccccc4=O)cc3)nc2C2CC(F)(F)C2)c1F` [Compound 342], the IC50 under setting [1] worked out at 6.29 nM.

`O=C(NCc1nccc(C2CC2)c1F)c1cn(Cc2ccc(CC3CC3)cc2)nc1C1COC1` [Compound 343]: the IC50 under setting [1] was above 1000 nM.

As to `CNc1ccnc(CNC(=O)c2cn(Cc3ccc(CC4CC4)cc3)nc2C2COC2)c1F` [Compound 344], the IC50 under setting [1] was 237 nM.

For the compound `O=C(NCc1nccc(N2CCC2)c1F)c1cn(Cc2ccc(Cn3ccccc3=O)cc2)nc1C1COC1` [Compound 346], the IC50 under setting [1] is 5.64 nM.

Consider `N/C(=N\O)c1ccc(CNC(=O)c2cnn(Cc3ccc(CC4CC4)cc3)c2)cc1` [Compound 348, (Z)-1-(4-(cyclopropylmethyl)benzyl)-N-(4-(N'-hydroxycarbamoyl)benzyl)-1H-pyrazole-4-carboxamide], for which inhibition (PKa IC50, plasma kallikrein enzyme assay) was half-maximal at 3.75 nM (IC50).

For the compound `O=C(NCc1nccc(-n2nccn2)c1F)c1cn(Cc2ccc(Cn3ccccc3=O)cc2)nc1C1COC1` [Compound 352], the IC50 under setting [1] amounted to 90 nM.

For the compound `N=C(N)c1cnc(CNC(=O)c2cnn(Cc3ccc(CC4CC4)cc3)c2)c(F)c1` [Compound 358], the IC50 under setting [1] came out at 6.06 nM.

As for `N=C(N)c1ccc(CNC(=O)c2cnn(Cc3c(Cl)cc(OCC4CC4)cc3Cl)c2)cc1` [Compound 359], under setting [1], the IC50 stood at 3.15 nM.

One may read the IC50 as the concentration that gives 50% inhibition.
